Legend:
Experiment in all cases: Glasshouse herbicide test, pre- and post-emergence, percentage damage
Assay type in all cases: in vivo
[1] = system: Echinochloa crus-galli (ECHCG); conditions: 250 g/h, evaluated after 13 days, percentage damage on five point scale; for ECHCG POST: post-emergence; for ECHCG PRE: pre-emergence
Description: (§1) Seeds of a variety of test species are sown in standard soil in pots (Lolium perenne (LOLPE), Setaria faberi (SETFA), Alopecurus myosuroides (ALOMY), Echinochloa crus-galli (ECHCG), Avena fatua (AVEFA)). After cultivation for one day (pre-emergence) or after 8 days cultivation (post-emergence) under controlled conditions in a glasshouse (at 24/16° C., day/night; 14 hours light; 65% humidity), the plants are sprayed with an aqueous spray solution derived from the formulation of the technical active ingredient in acetone/water (50:50) solution containing 0.5% Tween 20 (polyoxyethelyene sorbitan monolaurate, CAS RN 9005-64-5). Compounds are applied at […]. The test plants are then grown in a glasshouse under controlled conditions in a glasshouse (at 24/16° C., day/night; 14 hours light; 65% humidity) and watered twice daily. After 13 days for pre and post-emergence, the test is evaluated for the percentage damage caused to the plant. The biological activities are shown in the following table on a five point scale (5=80-100%; 4=60-79%; 3=40-59%; 2=20-39%; 1=0-19%).

[2] = system: Alopecurus myosuroides (ALOMY); conditions: 250 g/h, evaluated after 13 days, percentage damage on five point scale; for ALOMY POST: post-emergence; for ALOMY PRE: pre-emergence
Description: as §1

Setaria faberi (SETFA) = conditions: 250 g/h, evaluated after 13 days, percentage damage on five point scale; for SETFA POST: post-emergence; for SETFA PRE: pre-emergence
Description: as §1

Lolium perenne (LOLPE) = conditions: 250 g/h, evaluated after 13 days, percentage damage on five point scale; for LOLPE POST: post-emergence; for LOLPE PRE: pre-emergence
Description: as §1

Avena fatua (AVEFA) = conditions: 250 g/h, evaluated after 13 days, percentage damage on five point scale; for AVEFA POST: post-emergence; for AVEFA PRE: pre-emergence
Description: as §1

Which results are given for `Cc1cc(-c2ccc(C#N)cn2)cc(C)c1C1C(=O)CC2(CCN(C(=O)C3CC3)CC2)CC1=O` [Compound A28]?
ECHCG POST [1]: 5 (5=80-100%); ECHCG PRE [1]: 5 (5=80-100%); ALOMY POST [2]: 5 (5=80-100%); ALOMY PRE [2]: 5 (5=80-100%); SETFA POST (Setaria faberi (SETFA)): 5 (5=80-100%); SETFA PRE (Setaria faberi (SETFA)): 5 (5=80-100%); LOLPE POST (Lolium perenne (LOLPE)): 5 (5=80-100%); LOLPE PRE (Lolium perenne (LOLPE)): 5 (5=80-100%); AVEFA POST (Avena fatua (AVEFA)): 5 (5=80-100%); AVEFA PRE (Avena fatua (AVEFA)): 5 (5=80-100%)

For `CON1CCC2(CC1)CC(=O)C(c1c(C)cc(-c3ncc(F)cn3)cc1C)C(=O)C2` [Compound A2, 9-[4-(5-fluoropyrimidin-2-yl)-2,6-dimethyl-phenyl]-3-methoxy-3-azaspiro[5.5]undecane-8,10-dione], which “ECHCG POST” value [1] is on record?
Its value is 5 (5=80-100%).

And the “ECHCG PRE” value [1]?
The value was 5 (5=80-100%).

What about the “ALOMY POST” value [2] of the same molecule?
Its value is 5 (5=80-100%).

What about the “ALOMY PRE” value [2] of the same molecule?
Its value is 5 (5=80-100%).

What about the “SETFA POST” value (Setaria faberi (SETFA)) of the same molecule?
The value was 5 (5=80-100%).

What about the “SETFA PRE” value (Setaria faberi (SETFA)) of the same molecule?
Its value is 5 (5=80-100%).

What about the “LOLPE POST” value (Lolium perenne (LOLPE)) of the same molecule?
The value was 5 (5=80-100%).

And the “LOLPE PRE” value (Lolium perenne (LOLPE))?
The value was 5 (5=80-100%).

What about the “AVEFA POST” value (Avena fatua (AVEFA)) of the same molecule?
Its value is 5 (5=80-100%).

And the “AVEFA PRE” value (Avena fatua (AVEFA))?
Its value is 5 (5=80-100%).

Which results are given for `CCS(=O)(=O)N1CCC2(CC1)CC(=O)C(c1c(C)cc(-c3ncc(F)cn3)cc1C)C(=O)C2` [Compound A32]?
ECHCG POST [1]: 5 (5=80-100%); ECHCG PRE [1]: 5 (5=80-100%); ALOMY POST [2]: 5 (5=80-100%); ALOMY PRE [2]: 5 (5=80-100%); SETFA POST (Setaria faberi (SETFA)): 5 (5=80-100%); SETFA PRE (Setaria faberi (SETFA)): 5 (5=80-100%); LOLPE POST (Lolium perenne (LOLPE)): 5 (5=80-100%); LOLPE PRE (Lolium perenne (LOLPE)): 5 (5=80-100%); AVEFA POST (Avena fatua (AVEFA)): 5 (5=80-100%); AVEFA PRE (Avena fatua (AVEFA)): 5 (5=80-100%)

How did the “ECHCG POST” value [1] turn out when `COc1cc(-c2ncc(F)cn2)cc(OC)c1C1C(=O)CC2(CCN(OC)CC2)CC1=O` [Compound A8] was run?
Its value is 5 (5=80-100%).

What about the “ECHCG PRE” value [1] of the same molecule?
The value was 5 (5=80-100%).

And the “ALOMY POST” value [2]?
The value was 5 (5=80-100%).

And the “ALOMY PRE” value [2]?
The value was 5 (5=80-100%).

What about the “SETFA POST” value (Setaria faberi (SETFA)) of the same molecule?
The value was 5 (5=80-100%).

What about the “SETFA PRE” value (Setaria faberi (SETFA)) of the same molecule?
Its value is 5 (5=80-100%).

What about the “LOLPE POST” value (Lolium perenne (LOLPE)) of the same molecule?
Its value is 5 (5=80-100%).

And the “LOLPE PRE” value (Lolium perenne (LOLPE))?
Its value is 5 (5=80-100%).

What about the “AVEFA POST” value (Avena fatua (AVEFA)) of the same molecule?
The value was 5 (5=80-100%).

What about the “AVEFA PRE” value (Avena fatua (AVEFA)) of the same molecule?
Its value is 5 (5=80-100%).

With `Cc1cc(-c2ccc(C#N)cn2)cc(C)c1C1C(=O)CC2(CCN(C(=O)c3ccccn3)CC2)CC1=O` [Compound A24] as the molecule, how does the “ECHCG POST” value [1] read?
Its value is 5 (5=80-100%).

What about the “ECHCG PRE” value [1] of the same molecule?
The value was 5 (5=80-100%).

And the “ALOMY POST” value [2]?
The value was 5 (5=80-100%).

And the “ALOMY PRE” value [2]?
The value was 5 (5=80-100%).

And the “SETFA POST” value (Setaria faberi (SETFA))?
The value was 5 (5=80-100%).

And the “SETFA PRE” value (Setaria faberi (SETFA))?
Its value is 5 (5=80-100%).

What about the “LOLPE POST” value (Lolium perenne (LOLPE)) of the same molecule?
The value was 5 (5=80-100%).

What about the “LOLPE PRE” value (Lolium perenne (LOLPE)) of the same molecule?
The value was 5 (5=80-100%).

And the “AVEFA POST” value (Avena fatua (AVEFA))?
Its value is 5 (5=80-100%).

And the “AVEFA PRE” value (Avena fatua (AVEFA))?
The value was 5 (5=80-100%).

What does the source list for `COc1cc(-c2ncc(F)cn2)cc(C)c1C1C(=O)CC2(CCN(C(C)=O)CC2)CC1=O` [Compound A17]?
ECHCG POST [1]: 5 (5=80-100%); ECHCG PRE [1]: 5 (5=80-100%); ALOMY POST [2]: 5 (5=80-100%); ALOMY PRE [2]: 5 (5=80-100%); SETFA POST (Setaria faberi (SETFA)): 5 (5=80-100%); SETFA PRE (Setaria faberi (SETFA)): 5 (5=80-100%); LOLPE POST (Lolium perenne (LOLPE)): 5 (5=80-100%); LOLPE PRE (Lolium perenne (LOLPE)): 5 (5=80-100%); AVEFA POST (Avena fatua (AVEFA)): 5 (5=80-100%); AVEFA PRE (Avena fatua (AVEFA)): 5 (5=80-100%)

With `Cc1cc(-c2ccc(F)cc2)cc(C)c1C1C(=O)CC2(CCN(C(=O)C3CC3)CC2)CC1=O` [Compound A59] as the molecule, how does the “ECHCG POST” value [1] read?
Its value is 5 (5=80-100%).

What about the “ECHCG PRE” value [1] of the same molecule?
The value was 5 (5=80-100%).

And the “ALOMY PRE” value [2]?
The value was 5 (5=80-100%).

What about the “SETFA POST” value (Setaria faberi (SETFA)) of the same molecule?
Its value is 5 (5=80-100%).

And the “SETFA PRE” value (Setaria faberi (SETFA))?
Its value is 5 (5=80-100%).

What about the “LOLPE POST” value (Lolium perenne (LOLPE)) of the same molecule?
Its value is 5 (5=80-100%).

And the “LOLPE PRE” value (Lolium perenne (LOLPE))?
The value was 5 (5=80-100%).

And the “AVEFA POST” value (Avena fatua (AVEFA))?
The value was 5 (5=80-100%).

And the “AVEFA PRE” value (Avena fatua (AVEFA))?
Its value is 5 (5=80-100%).

For `COc1cc(-c2ccc(F)cc2)cc(C)c1C1C(=O)CC2(CCN(C(=O)NC(=O)c3ccccn3)CC2)CC1=O` [Compound A73], which “ECHCG POST” value [1] is on record?
The value was 5 (5=80-100%).

And the “ECHCG PRE” value [1]?
Its value is 4 (4=60-79%).

What about the “ALOMY PRE” value [2] of the same molecule?
The value was 5 (5=80-100%).

What about the “SETFA POST” value (Setaria faberi (SETFA)) of the same molecule?
Its value is 5 (5=80-100%).

And the “SETFA PRE” value (Setaria faberi (SETFA))?
Its value is 5 (5=80-100%).

And the “LOLPE POST” value (Lolium perenne (LOLPE))?
The value was 5 (5=80-100%).

What about the “LOLPE PRE” value (Lolium perenne (LOLPE)) of the same molecule?
The value was 1 (1=0-19%).

And the “AVEFA POST” value (Avena fatua (AVEFA))?
The value was 5 (5=80-100%).

What about the “AVEFA PRE” value (Avena fatua (AVEFA)) of the same molecule?
The value was 1 (1=0-19%).

With `CCS(=O)(=O)N1CCC2(CC1)CC(=O)C(c1c(C)cc(-c3ccc(F)cc3)cc1C)C(=O)C2` [Compound A53] as the molecule, how does the “ECHCG POST” value [1] read?
Its value is 3 (3=40-59%).

What about the “ECHCG PRE” value [1] of the same molecule?
The value was 5 (5=80-100%).

And the “ALOMY PRE” value [2]?
The value was 5 (5=80-100%).

What about the “SETFA POST” value (Setaria faberi (SETFA)) of the same molecule?
Its value is 5 (5=80-100%).

And the “SETFA PRE” value (Setaria faberi (SETFA))?
The value was 5 (5=80-100%).

What about the “LOLPE POST” value (Lolium perenne (LOLPE)) of the same molecule?
The value was 5 (5=80-100%).

And the “LOLPE PRE” value (Lolium perenne (LOLPE))?
The value was 5 (5=80-100%).

And the “AVEFA POST” value (Avena fatua (AVEFA))?
The value was 5 (5=80-100%).

What about the “AVEFA PRE” value (Avena fatua (AVEFA)) of the same molecule?
Its value is 4 (4=60-79%).
